US20260085034A1, “N-(BENZHYDRYL)CYCLOALKYLCARBOXAMIDE DERIVATIVES AS INHIBITORS OF GLYCOGEN SYNTHASE 1 (GYS1) AND METHODS OF USE THEREOF” (Maze Therapeutics, Inc., priority 2022, published 2026)

Columns and labels:
[1] = system: glycogen synthesis in HeLa cells (hGYS1); assay: GYS1 cell based assay (glycogen digestion, Glucose-glo); conditions: Homo sapiens, 24 h incubation, 20 mM glucose, geometric mean of at least 2 runs, read-out: Cellular IC50
Excerpt: The GYS1 cell based assay is a bioluminescent assay that quantifies the glucose resulting from glycogen digestion; the quantified glucose is an indirect measure of GYS1 glycogen synthesis. Newly synthesized glycogen is digested using Glucoamylase; the resulting glucose is quantified by using the Glucose-glo assay kit from Promega. Glucose-glo works by coupling glucose oxidation and NADH production with a bioluminescent system that is activated with NADH. Glucose is oxidized by Glucose dehydrogenase and the reaction reduces NAD+ to NADH; NADH activates Reductase which reduces a pro-luciferin Reductase Substrate to luciferin. Luciferin is detected in a luciferase reaction using Ultra-Glo rLuciferase and ATP, and the luminesce produced is proportional to the glucose in the sample. The luminescence is measured as a single point read in a plate reader.
Compounds that inhibit the hGYS1 enzyme and, subsequently, the glycogen synthesis in cells, were tested using assay ready plates (white, clear bottom 384 well plates) in a final DMSO reaction volume of 1% DMSO. Compounds in the assay ready plates were mixed with media with no additives, except for 20 mM glucose prior to cell addition. HeLa cells were starved in media with no additives, except for 1× Glutamax for 24 h. Starved HeLa cells were plated, in a 1:1 ratio to the media in the assay ready plate and incubated for 24 h at 37° C. and 5% CO2. Cells were washed in 1×PBS buffer and lysed in lysis buffer containing 50% 1×PBS and 25% 0.3 N HCl of the final volume in the well or reaction volume; cells were incubated with lysis buffer for 10 minutes and quenched with the remaining 25% of the reaction volume that consisted of 450 mM Tris pH 8.0. Lysates were mixed in a 1:1 ratio with Glucoamylase in 100 mM Sodium Acetate buffer, pH 5.3; the mixture was incubated for 1 h at 37° C. The digested lysate was mixed in a 1:1 ratio with Glucose-glo detection mixture as per vendor recommendations (Luciferase detection buffer, Reductase, Reductase substrate, Glucose dehydrogenase, and NAD) in read-out plates (solid white 384-well plates) and incubated for 1 h at RT. The plates were read using a plate reader with luminescence capabilities. Each compound concentration Relative Luminescence Unit (RLU) was averaged and normalized to the average RLU of the positive and negative controls to obtain a percentage inhibition. The normalized data vs. concentration was plotted; to determine the half-maximal concentration (IC50), the Levenberg-Marquardt algorithm was used to fit a Hill equation to the dose response data.
(§1) The results are shown in Table 4 below, which reports the IC50 of each compound. Unless otherwise specified, IC50 values are reported as the geometric mean of at least 2 assay runs on separate days. As shown in the table below, the compounds of the present invention are potent inhibitors of human GYS1. Unless otherwise specified, IC50 values are reported as the geometric mean of at least two assay runs on separate days. Each run represents the average of a technical replicate, where each compound was assayed twice in the same plate.

[2] = molecular target: T1, recombinant hGYS1/GN1 protein (Homo sapiens, UniProt P13807); assay: GYS1 coupled enzyme assay (PK/LDH); assay type: biochemical; conditions: geometric mean of at least 2 assay runs; NADH absorbance at 340 nm
T1 sequence (P13807 1-737): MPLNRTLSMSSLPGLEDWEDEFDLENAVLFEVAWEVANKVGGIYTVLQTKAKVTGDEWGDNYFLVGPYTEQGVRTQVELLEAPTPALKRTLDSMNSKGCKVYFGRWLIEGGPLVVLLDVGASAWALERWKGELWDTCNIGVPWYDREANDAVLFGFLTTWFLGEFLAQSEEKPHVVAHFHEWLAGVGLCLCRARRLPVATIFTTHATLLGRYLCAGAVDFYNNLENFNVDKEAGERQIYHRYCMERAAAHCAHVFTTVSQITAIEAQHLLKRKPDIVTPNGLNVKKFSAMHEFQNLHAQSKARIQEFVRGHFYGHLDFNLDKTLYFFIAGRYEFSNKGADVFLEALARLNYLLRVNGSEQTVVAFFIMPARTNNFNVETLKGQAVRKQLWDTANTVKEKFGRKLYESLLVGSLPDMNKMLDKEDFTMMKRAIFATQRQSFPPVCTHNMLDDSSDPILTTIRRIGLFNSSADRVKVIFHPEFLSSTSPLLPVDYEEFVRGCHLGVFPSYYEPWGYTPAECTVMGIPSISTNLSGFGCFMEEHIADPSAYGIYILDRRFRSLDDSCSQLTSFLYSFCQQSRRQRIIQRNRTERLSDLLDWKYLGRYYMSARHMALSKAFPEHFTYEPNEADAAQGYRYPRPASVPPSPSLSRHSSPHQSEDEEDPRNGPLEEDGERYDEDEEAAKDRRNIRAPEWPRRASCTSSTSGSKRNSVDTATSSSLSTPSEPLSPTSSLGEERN
T1 sequence (P46976 1-350 partner): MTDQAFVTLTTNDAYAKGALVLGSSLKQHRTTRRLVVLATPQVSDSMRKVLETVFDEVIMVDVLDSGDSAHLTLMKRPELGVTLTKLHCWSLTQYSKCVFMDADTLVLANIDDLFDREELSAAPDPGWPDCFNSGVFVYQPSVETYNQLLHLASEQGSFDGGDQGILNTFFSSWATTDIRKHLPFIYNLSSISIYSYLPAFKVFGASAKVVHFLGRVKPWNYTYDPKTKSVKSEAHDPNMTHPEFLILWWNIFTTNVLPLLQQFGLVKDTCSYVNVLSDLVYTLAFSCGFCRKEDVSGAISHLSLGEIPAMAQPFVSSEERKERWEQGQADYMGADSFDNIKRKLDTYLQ
Procedure, shortened: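 Recombinant hGYS1/GN1 (50 nM) with 0.8 mM UDP-glucose, 0.2% glycogen and 1 mM glucose-6-phosphate in Tris pH 7.5, 2.5% DMSO. UDP formation coupled via PK/LDH to NADH oxidation, read at 340 nm over 10 min. Control-normalized slopes fit to Hill equation; IC50 as geometric mean of ≥2 runs.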

[3] = molecular target: T2, recombinant hGYS2/GN1 protein (Homo sapiens, UniProt P54840); assay: GYS2 coupled enzyme assay (PK/LDH); assay type: biochemical; conditions: geometric mean of at least 2 assay runs; NADH absorbance at 340 nm
T2 sequence (P54840 1-703): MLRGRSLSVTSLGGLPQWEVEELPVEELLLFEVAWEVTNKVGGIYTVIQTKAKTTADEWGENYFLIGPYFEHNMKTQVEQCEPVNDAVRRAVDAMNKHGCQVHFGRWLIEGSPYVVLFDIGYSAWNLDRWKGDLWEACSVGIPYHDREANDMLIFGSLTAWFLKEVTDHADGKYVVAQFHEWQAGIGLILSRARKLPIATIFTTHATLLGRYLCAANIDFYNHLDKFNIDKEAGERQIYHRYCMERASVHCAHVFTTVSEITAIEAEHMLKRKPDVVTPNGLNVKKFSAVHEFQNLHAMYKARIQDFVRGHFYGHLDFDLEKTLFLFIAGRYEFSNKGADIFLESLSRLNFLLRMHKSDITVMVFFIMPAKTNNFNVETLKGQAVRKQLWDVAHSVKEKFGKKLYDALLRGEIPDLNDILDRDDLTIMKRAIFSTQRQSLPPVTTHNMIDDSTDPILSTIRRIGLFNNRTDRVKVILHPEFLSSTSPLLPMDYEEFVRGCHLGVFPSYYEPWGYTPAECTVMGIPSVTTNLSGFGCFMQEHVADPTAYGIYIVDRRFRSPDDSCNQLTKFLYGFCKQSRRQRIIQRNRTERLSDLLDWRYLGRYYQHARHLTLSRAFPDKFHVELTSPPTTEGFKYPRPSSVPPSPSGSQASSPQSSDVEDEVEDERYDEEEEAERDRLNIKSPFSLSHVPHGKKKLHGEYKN
T2 sequence (P46976 1-350 partner): T1 sequence (P46976 1-350 partner)
Excerpt: The GYS2 coupled enzyme assay is a kinetic biochemical assay that indirectly quantifies the rate of glycogen synthesis by coupling the conversion of GYS2 substrate UDP-glucose into UDP with downstream enzymatic reactions. UDP is released from UDP-glucose as glucose monomers are linked into the growing glycogen strand by GYS2. The coupled assay then proceeds with pyruvate kinase utilizing UDP and phospho(enol)pyruvate (PEP) to form pyruvate. Lactate dehydrogenase then converts pyruvate and NADH into lactate and NAD+. Oxidation of NADH to NAD+ can be measured continuously with a plate reader by quantifying the decrease in NADH absorbance at 340 nm over time.
Compounds that inhibit the hGYS2 enzyme and, subsequently, the downstream conversion of NADH to NAD+, were tested using assay ready plates (black, clear bottom 384 well plates) in a final DMSO reaction volume of 2.5% DMSO. The Assay Buffer contained 50 mM Tris pH 7.5, 2 mM MgCl2, and 100 mM KCl. Fresh stocks of BSA at a final concentration of 0.02% and TCEP 1 mM were added before splitting buffer into hGYS2 buffer and substrate buffer. To the hGYS2 buffer, rabbit liver glycogen was added at a final concentration of 0.2% glycogen. Glucose-6-Phosphate was added at 2 mM, recombinant hGYS2/GN1 protein was added at 200 nM to the substrate buffer, phosphoenolpyruvate (PEP) was added at 2 mM, UDP-Glucose was added at 2 mM, NADH was added at 0.6 mM, and Pyruvate Kinase/Lactate Dehydrogenase was added at 20 units/mL. The reaction was initiated by mixing hGYS2 buffer and substrate buffer at a 1:1 ratio. Both buffers were plated using a liquid dispensing device with hGYS2 buffer plated first followed by the substrate buffer. Plates were spun briefly to eliminate air bubbles and are immediately read in continuous mode at an absorbance of 340 nm, for 10 time points in one-minute increments, for a total of 10 minutes. The slope from these 10 time points was normalized to the positive and negative control wells. The duplicate % inhibition values are then averaged and fit to a Hill equation for dose response according to the Levenberg-Marquardt algorithm with the Hill equation maximum set to 100 and the minimum set to 0.
as §1, with “in Table 5 below, which” for “in Table 4 below, which”, “invention are not potent inhibitors” for “invention are potent inhibitors”, “of human GYS2.[…]” for “of human GYS1. Unless otherwise”

SMILES | IC50 [1] | IC50 [2] | IC50 [3]
CC(C)c1ccc([C@@H](NC(=O)[C@H]2C[C@@H]2F)c2ccc3cn[nH]c3c2)nc1F (single isomer, unassigned) [compound 3] | 1510 nM | 55 nM | 
CC(C)c1ccc([C@@H](NC(=O)[C@H]2C[C@@H]2F)c2cccc(-c3ccn[nH]3)c2)nc1F (single isomer, unassigned) [compound 4] | 2790 nM | 156 nM | 
CC(C)c1ccc([C@@H](NC(=O)[C@H]2C[C@@H]2F)c2cccc3[nH]c(=O)[nH]c23)cc1F (single isomer, unassigned) [compound 5] | 1060 nM | 131 nM | 
O=C(N[C@@H](c1ccccc1)c1ccc(C2CC2)c(F)n1)[C@H]1C[C@@H]1F [compound 2, (1R,2S)-N-((S)-(5-cyclopropyl-6-fluoropyridin-2-yl)(phenyl)methyl)-2-fluorocyclopropane-1-carboxamide] | 6520 nM | 1140 nM | 
CC(C)c1ccc([C@@H](NC(=O)C2CC2)c2ccccc2NC(=O)C2COC2)cc1 [compound 60, (R)-N-(2-(cyclopropanecarboxamido(4-isopropylphenyl)methyl)phenyl)oxetane-3-carboxamide] |  | 521 nM | > 100000 nM
CC(C)c1ccc([C@@H](NC(=O)C2CC2)c2cccc(O)c2)cc1 [compound 62, (R)-N-((3-hydroxyphenyl)(4-isopropylphenyl)methyl)cyclopropanecarboxamide] |  | 376 nM | > 100000 nM
COc1cccc([C@H](NC(=O)C2CC2)c2ccc(C(C)C)cc2)c1C [compound 63, (R)-N-((4-isopropylphenyl)(3-methoxy-2-methylphenyl)methyl)cyclopropanecarboxamide] |  | 1430 nM | > 100000 nM
CC(C)c1ccc([C@@H](NC(=O)C2CC2)c2ccccc2O)cc1 [compound 67, (R)-N-((2-hydroxyphenyl)(4-isopropylphenyl)methyl)cyclopropanecarboxamide] |  | 293 nM | > 100000 nM
CC(C)c1ccc([C@@H](NC(=O)C2CC2)c2ccc(O)cc2)cc1 [compound 68, (R)-N-((4-hydroxyphenyl)(4-isopropylphenyl)methyl)cyclopropanecarboxamide] |  | 663 nM | > 97400 nM
COc1cccc([C@H](NC(=O)C2CC2)c2ccc(C(C)C)cc2)c1 [compound 70, (R)-N-((4-isopropylphenyl)(3-methoxyphenyl)methyl)cyclopropanecarboxamide] |  | 786 nM | > 100000 nM
COc1ccc([C@H](NC(=O)C2CC2)c2ccc(C(C)C)cc2)cc1 [compound 72, (R)-N-((4-isopropylphenyl)(4-methoxyphenyl)methyl)cyclopropanecarboxamide] |  | 2680 nM | > 100000 nM
CC(C)c1ccc([C@@H](NC(=O)C2CC2)c2ccccc2)cc1 [compound 73, (S)-N-((4-isopropylphenyl)(phenyl)methyl)cyclopropanecarboxamide] |  | 706 nM | > 100000 nM
